The source of these data is paper PMC7966987, “Insights into the catalytic properties of the mitochondrial rhomboid protease PARL” (The Journal of Biological Chemistry, 2021).

Residues, ends and D or L forms follow the SMILES beside them.

The target of assay [1] is T1, PARLΔ77 (Homo sapiens, UniProt Q9H300).
T1 construct: GFP-hexahistidine (behind a TEV cleavage site) (C, cleaved yes); made in house; host or cells: Pichia pastoris
T1 sequence (Q9H300 78-379): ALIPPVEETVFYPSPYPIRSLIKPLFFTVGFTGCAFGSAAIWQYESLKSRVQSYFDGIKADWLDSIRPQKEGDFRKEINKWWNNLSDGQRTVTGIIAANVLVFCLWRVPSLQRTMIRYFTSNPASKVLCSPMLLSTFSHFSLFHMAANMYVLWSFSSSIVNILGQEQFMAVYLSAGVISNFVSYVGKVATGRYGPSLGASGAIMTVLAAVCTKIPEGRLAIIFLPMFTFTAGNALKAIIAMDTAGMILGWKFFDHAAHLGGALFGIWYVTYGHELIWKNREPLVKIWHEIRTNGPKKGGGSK
The assay can be described thus: Inhibition by commercial serine protease inhibitors, PARLΔ77 in detergent. The assay is classed as biochemical. The settings on record: 100 μM inhibitor, IQ-PINK1 and IQ-PGAM5 substrates, N=3. The source says:
We examined whether inhibitors belonging to three standard serine protease inhibitors families—sulfonyl fluoride (PMSF), chloromethyl ketone (TPCK), and coumarin (DCI)—were able to inhibit PARL when tested with IQ-PINK1 and IQ-PGAM5 substrates. […] Overall this supports the view that for PARL, specific inhibitors will need to be developed similar to bacterial rhomboid proteases ([48], [49]). […]
(§1) inhibitors. Bar graphs for percent activity of detergent solubilized (A) and proteoliposome reconstituted (B) PA R L Δ77with100µMofinhibitoradded prior to the addition of IQ-PINK1 and IQ-PGAM5 substrates. Experiments were conducted in duplicate with an N=3.
(§2) Individual data points (black dots) are indicated on the bar graphs, representing the mean […]

In the next assay the test system is Rhomboid-1. The settings on record: cited from earlier work. The source says:
(§3) Rhomboids were initially discovered to be serine proteases because the first identified rhomboid protease from Drosophila, Rhomboid-1, was sensitive to serine protease inhibitors dichloroisocoumarin (DCI) and tosyl phenylalanyl chloromethylketone (TPCK) ([44]).

Assay [2] concerns the target T1, PARLΔ77. The experiment in a line: Inhibition by commercial serine protease inhibitors, PARLΔ77 in proteoliposomes. The assay is classed as biochemical. The settings on record: 100 μM inhibitor, in PL, IQ-PINK1 and IQ-PGAM5 substrates, N=3. How it is done:
We examined whether inhibitors belonging to three standard serine protease inhibitors families—sulfonyl fluoride (PMSF), chloromethyl ketone (TPCK), and coumarin (DCI)—were able to inhibit PARL when tested with IQ-PINK1 and IQ-PGAM5 substrates. […] Overall this supports the view that for PARL, specific inhibitors will need to be developed similar to bacterial rhomboid proteases ([48], [49]).
The activity assay with PARL reconstituted in PL was performed the same way as for PARL in DDM with the only difference being the activity buffer, where DDM was omitted (50 mM Tris-HCl pH 7.0, 150 mM NaCl, 10% glycerol). For inhibitory studies, PARL in PL (0.8 μM) was incubated with inhibitors (20 μM) in activity buffer for 30 min, and then the proteolytic reaction was started with the addition of substrate (5 μM). […]
as §1, §2

The target of assay [3] is T1, PARLΔ77. The experiment in a line: Competition assay, IQ-Smac/Diablo(51-60) cleavage in presence of PINK1(89-111). The assay is classed as biochemical. The conditions noted are these: read-out: Ki (Kd represented by Ki of the PARL-PINK1(89-111) complex). The source says:
(§4) To determine if substrates bind to the same site, we performed competition binding assays using fluorescent IQ-PGAM5^20–29 and IQ-Smac/Diablo^51–60 as the main substrates and nonfluorescent PINK1^89–111 (^89[…]^111) as a competing substrate (Fig. 4). The longer version of substrate was used in this assay in order to reveal possible exosite interactions of substrate with PARL, assuming that regions surrounding the cleavage site might be involved in a primary substrate binding with a putative exosite.
(§5) Fluorescence detection of each substrate concentration in the presence of corresponding PINK189-111 without enzyme was used as a negative control. Initial velocities were determined for each substrate concentration. Michaelis–Menten plots were subjected to global fit to distinguish the kinetic model and determine the kinetic parameters. Values are represented as mean ± SEM (N = 3). […] The only names printed in the panels are the substrates on the x-axis, and KM and kcat are assigned to them.
(§6) The Michaelis–Menten curves of PARL-mediated cleavage of IQ-PGAM5^20–29 and IQ-Smac/Diablo^51–60 were obtained in the presence of different concentrations of PINK1^89–111.

The target in assay [4] is T1, PARLΔ77. The assay can be described thus: Competition assay, IQ-PGAM5(20-29) cleavage in presence of PINK1(89-111). The assay is classed as biochemical. The conditions noted are these: read-out: Ki (Kd represented by Ki of the PARL-PINK1(89-111) complex).
From the text: as §4, §5, §6

Assay [5] concerns bacterial rhomboid proteases. The settings on record: cited from earlier work.
From the text: as §3

Assay [6] has as its target PARLΔ77 (β-cleavage form of human PARL) (human) (UniProt Q9H300). The experiment in a line: competitive inhibition of FRET peptide cleavage (enzyme kinetics); PARLΔ77 0.8 μM; IQ-PGAM5 20-29 (0.13-19 μM) as main substrate; nonfluorescent PINK1 89-111 at 2.5, 5, 10, 20 μM; Michaelis–Menten plots fitted globally, competitive model; Kd represented by Ki.
Assay [7] shares this target. The assay can be described thus: competitive inhibition of FRET peptide cleavage (enzyme kinetics); PARLΔ77 0.8 μM; IQ-Smac/Diablo 51-60 (0.3–25 μM) as main substrate; nonfluorescent PINK1 89-111 at 2.5, 5, 10, 20 μM; Michaelis–Menten plots fitted globally, competitive model; Kd represented by Ki.

PARLΔ77 (β-cleavage form of human PARL) (human), sequence (Q9H300 77-379, stated change not applied): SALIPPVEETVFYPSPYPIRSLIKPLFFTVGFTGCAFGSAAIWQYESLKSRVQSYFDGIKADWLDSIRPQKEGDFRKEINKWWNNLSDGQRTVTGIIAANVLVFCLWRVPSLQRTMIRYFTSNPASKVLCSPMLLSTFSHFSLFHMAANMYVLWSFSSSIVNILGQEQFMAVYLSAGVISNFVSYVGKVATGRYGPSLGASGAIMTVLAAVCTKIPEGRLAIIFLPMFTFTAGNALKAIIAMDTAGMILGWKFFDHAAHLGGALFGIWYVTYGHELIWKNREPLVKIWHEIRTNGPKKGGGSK

Turning to `O=c1oc(Cl)c(Cl)c2ccccc12` [DCI, dichloroisocoumarin], the “inhibition of PARL activity” value on PARLΔ77 [1] and on PARLΔ77 [2] was “largest inhibitory effect” in each case. Besides, in the assay with Rhomboid-1, the “inhibition of Drosophila Rhomboid-1” value is reported as “sensitive”.

As to `CC[C@H](C)[C@H](NC(=O)[C@H](CC(C)C)NC(=O)CNC(=O)[C@H](CC(C)C)NC(=O)CNC(=O)[C@H](CC(C)C)NC(=O)CNC(=O)[C@H](Cc1ccccc1)NC(=O)[C@H](C)NC(=O)[C@H](CC(C)C)NC(=O)[C@H](Cc1ccccc1)NC(=O)[C@@H](NC(=O)[C@H](C)NC(=O)[C@H](CCCNC(=N)N)NC(=O)CNC(=O)[C@H](CS)NC(=O)[C@@H]1CCCN1C(=O)CNC(=O)[C@H](C)NC(=O)[C@H](CS)NC(=O)CNC(=O)[C@H](Cc1c[nH]c2ccccc12)NC(=O)[C@H](C)NC(=O)[C@H](CO)NC(=O)CN)C(C)C)C(=O)O` [PINK1^89–111] (H-GSAWGCAGPCGRAVFLAFGLGLGLI-OH), the Ki at PARLΔ77 [3] turned out to be 2300 ± 700 nM; on PARLΔ77 [4], 2400 ± 600 nM.

For `O=S(=O)(F)Cc1ccccc1` [PMSF], the “inhibition of PARL activity” value against PARLΔ77 [1] and against PARLΔ77 [2] was “not inhibited” each time. Also, the “inhibition of bacterial rhomboid proteases” value in assay [5] is recorded as “does not act on bacterial rhomboid proteases”.

Turning to `Cc1ccc(S(=O)(=O)N[C@@H](Cc2ccccc2)C(=O)CCl)cc1` [TPCK, tosyl phenylalanyl chloromethylketone], the “inhibition of PARL activity” value against PARLΔ77 [1] and against PARLΔ77 [2] was “partially inhibits” each time. Moreover, the “inhibition of Drosophila Rhomboid-1” value in the assay with Rhomboid-1 was “sensitive”.

Consider AWGCAGPCGRAVFLAFGLGLGLI [PINK1 TM domain (amino acids 89–111), nonfluorescent], for which the Ki in assay [6] was 2400 nM; in assay [7], 2300 nM.

The term Ki denotes the dissociation constant of the complex between target and ligand, obtained from inhibition or displacement.
